Patent publication US20240217950A1, “PESTICIDALLY ACTIVE CYCLIC AMINE COMPOUNDS” (SYNGENTA CROP PROTECTION AG, priority 2021, published 2024)

Test system: Tetranychus urticae (Two-Spotted Spider Mite)
Test: Tetranychus urticae (two-spotted spider mite) feeding/contact activity on bean leaf discs
Type: in vivo
Conditions: foliar, 192 h, application rate of 200 ppm, sprayed bean leaf discs, mixed population (mobile stages), 8 days after infestation
Protocol: Example B1: Tetranychus urticae (Two-Spotted Spider Mite)
Feeding/contact activity Bean leaf discs on agar in 24-well microtiter plates were sprayed with aqueous test solutions prepared from 10′000 ppm DMSO stock solutions. After drying the leaf discs were infested with a mite population of mixed ages. The samples were assessed for mortality on mixed population (mobile stages) 8 days after infestation.

COCc1nc(OCc2cc(C(F)(F)F)ccc2F)c(C#N)cc1C(=O)N1CCC(c2noc(C)n2)CC1 [Compound P1.2, 2-[[2-fluoro-5-(trifluoromethyl)phenyl]methoxy]-6-(methoxymethyl)-5-[4-(5-methyl-1,2,4-oxadiazol-3-yl)piperidine-1-carbonyl]pyridine-3-carbonitrile]
mortality at 200 ppm: ≥ 80%
